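The concentration for 50% growth inhibition is given as GI50. TGI marks complete inhibition of growth.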
Tests used:
Experiment in all cases: NCI anticancer screen, dose series, 384-well format
SK-OV-3 ovarian = tested on: SK-OV-3 ovarian
ACHN renal = tested on: ACHN renal
K-562 leukemia = tested on: K-562 leukemia
DU-145 prostate = tested on: DU-145 prostate
T-47D breast = tested on: T-47D breast
A498 renal = tested on: A498 renal
UACC-62 melanoma = tested on: UACC-62 melanoma
PC-3 prostate = tested on: PC-3 prostate
MDA-MB-231 breast = tested on: MDA-MB-231 breast
NCI/ADR-RES ovarian = tested on: NCI/ADR-RES ovarian
TK-10 renal = tested on: TK-10 renal
IGROV1 ovarian = tested on: IGROV1 ovarian
NCI-H226 lung = tested on: NCI-H226 lung
SW-620 colon = tested on: SW-620 colon
COLO 205 colon = tested on: COLO 205 colon
SF-295 CNS = tested on: SF-295 CNS
HL-60(TB) leukemia = tested on: HL-60(TB) leukemia
NCI-H322M lung = tested on: NCI-H322M lung
RXF 393 renal = tested on: RXF 393 renal
NCI-H522 lung = tested on: NCI-H522 lung
786-0 renal = tested on: 786-0 renal
HS 578T breast = tested on: HS 578T breast
UO-31 renal = tested on: UO-31 renal
HT29 colon = tested on: HT29 colon
OVCAR-5 ovarian = tested on: OVCAR-5 ovarian
OVCAR-8 ovarian = tested on: OVCAR-8 ovarian
RPMI-8226 leukemia = tested on: RPMI-8226 leukemia
MOLT-4 leukemia = tested on: MOLT-4 leukemia
OVCAR-3 ovarian = tested on: OVCAR-3 ovarian
SF-539 CNS = tested on: SF-539 CNS
EKVX NSCLC = tested on: EKVX NSCLC
MDA-MB-435 melanoma = tested on: MDA-MB-435 melanoma
SK-MEL-28 melanoma = tested on: SK-MEL-28 melanoma
NCI-H23 lung = tested on: NCI-H23 lung
CCRF-CEM leukemia = tested on: CCRF-CEM leukemia
SN12C renal = tested on: SN12C renal
M14 melanoma = tested on: M14 melanoma
UACC-257 melanoma = tested on: UACC-257 melanoma
SR leukemia = tested on: SR leukemia
OVCAR-4 ovarian = tested on: OVCAR-4 ovarian
KM12 colon = tested on: KM12 colon
HOP-92 NSCLC = tested on: HOP-92 NSCLC
HOP-62 NSCLC = tested on: HOP-62 NSCLC
A549 NSCLC = tested on: A549 NSCLC
MALME-3M melanoma = tested on: MALME-3M melanoma
SF-268 CNS = tested on: SF-268 CNS
BT-549 breast = tested on: BT-549 breast
LOX IMVI melanoma = tested on: LOX IMVI melanoma
HCT-15 colon = tested on: HCT-15 colon
NCI-H460 NSCLC = tested on: NCI-H460 NSCLC
SNB-19 CNS = tested on: SNB-19 CNS
CAKI-1 renal = tested on: CAKI-1 renal
SNB-75 CNS = tested on: SNB-75 CNS

Nc1ncnc2c1ccn2[C@@H]1O[C@H]([C@H](O)c2ccc(Cl)c(F)c2)[C@@H](O)[C@H]1O
GI50 (SK-OV-3 ovarian): 50.3 µM | TGI (SK-OV-3 ovarian): > 100 µM | GI50 (ACHN renal): > 100 µM | TGI (ACHN renal): > 100 µM | GI50 (K-562 leukemia): 32.7 µM | TGI (K-562 leukemia): > 100 µM | GI50 (DU-145 prostate): > 100 µM | TGI (DU-145 prostate): > 100 µM | GI50 (T-47D breast): < 10 nM | TGI (T-47D breast): > 100 µM | GI50 (A498 renal): 85.1 µM | TGI (A498 renal): > 100 µM | GI50 (UACC-62 melanoma): > 100 µM | TGI (UACC-62 melanoma): > 100 µM | GI50 (PC-3 prostate): 97.7 µM | TGI (PC-3 prostate): > 100 µM | GI50 (MDA-MB-231 breast): > 100 µM | TGI (MDA-MB-231 breast): > 100 µM | GI50 (NCI/ADR-RES ovarian): > 100 µM | TGI (NCI/ADR-RES ovarian): > 100 µM | GI50 (TK-10 renal): > 100 µM | TGI (TK-10 renal): > 100 µM | GI50 (IGROV1 ovarian): 28.7 µM | TGI (IGROV1 ovarian): > 100 µM | GI50 (NCI-H226 lung): > 100 µM | TGI (NCI-H226 lung): > 100 µM | GI50 (SW-620 colon): > 100 µM | TGI (SW-620 colon): > 100 µM | GI50 (COLO 205 colon): > 100 µM | TGI (COLO 205 colon): > 100 µM | GI50 (SF-295 CNS): > 100 µM | TGI (SF-295 CNS): > 100 µM | GI50 (HL-60(TB) leukemia): 77.1 µM | TGI (HL-60(TB) leukemia): > 100 µM | GI50 (NCI-H322M lung): > 100 µM | TGI (NCI-H322M lung): > 100 µM | GI50 (RXF 393 renal): > 100 µM | TGI (RXF 393 renal): > 100 µM | GI50 (NCI-H522 lung): > 100 µM | TGI (NCI-H522 lung): > 100 µM | GI50 ([…]-0 renal): 72.9 µM | TGI (786-0 renal): > 100 µM | GI50 (HS 578T breast): > 100 µM | TGI (HS 578T breast): > 100 µM | GI50 (UO-31 renal): > 100 µM | TGI (UO-31 renal): > 100 µM | GI50 (HT29 colon): 37.4 µM | TGI (HT29 colon): > 100 µM | GI50 (OVCAR-5 ovarian): > 100 µM | TGI (OVCAR-5 ovarian): > 100 µM | GI50 (OVCAR-8 ovarian): > 100 µM | TGI (OVCAR-8 ovarian): > 100 µM | GI50 (RPMI-8226 leukemia): 12.6 µM | TGI (RPMI-8226 leukemia): > 100 µM | GI50 (MOLT-4 leukemia): < 10 nM | GI50 (OVCAR-3 ovarian): > 100 µM | TGI (OVCAR-3 ovarian): > 100 µM | GI50 (SF-539 CNS): > 100 µM | TGI (SF-539 CNS): > 100 µM | GI50 (EKVX NSCLC): 83.9 µM | TGI (EKVX NSCLC): > 100 µM | GI50 (MDA-MB-435 melanoma): > 100 µM | TGI (MDA-MB-435 melanoma): > 100 µM | GI50 (SK-MEL-28 melanoma): > 100 µM | TGI (SK-MEL-28 melanoma): > 100 µM | GI50 (NCI-H23 lung): 52.9 µM | TGI (NCI-H23 lung): > 100 µM | GI50 (CCRF-CEM leukemia): 33.9 µM | TGI (CCRF-CEM leukemia): > 100 µM | GI50 (SN12C renal): 41.6 µM | TGI (SN12C renal): > 100 µM | GI50 (M14 melanoma): > 100 µM | TGI (M14 melanoma): > 100 µM | GI50 (UACC-257 melanoma): > 100 µM | TGI (UACC-257 melanoma): > 100 µM | GI50 (SR leukemia): < 10 nM | TGI (SR leukemia): > 100 µM | GI50 (OVCAR-4 ovarian): < 10 nM | TGI (OVCAR-4 ovarian): > 100 µM | GI50 (KM12 colon): < 10 nM | TGI (KM12 colon): > 100 µM | GI50 (HOP-92 NSCLC): > 100 µM | TGI (HOP-92 NSCLC): > 100 µM | GI50 (HOP-62 NSCLC): > 100 µM | TGI (HOP-62 NSCLC): > 100 µM | GI50 (A549 NSCLC): > 100 µM | TGI (A549 NSCLC): > 100 µM | GI50 (MALME-3M melanoma): 40.9 µM | TGI (MALME-3M melanoma): > 100 µM | GI50 (SF-268 CNS): > 100 µM | TGI (SF-268 CNS): > 100 µM | GI50 (BT-549 breast): > 100 µM | TGI (BT-549 breast): > 100 µM | GI50 (LOX IMVI melanoma): > 100 µM | TGI (LOX IMVI melanoma): > 100 µM | GI50 (HCT-15 colon): > 100 µM | TGI (HCT-15 colon): > 100 µM | GI50 (NCI-H460 NSCLC): < 10 nM | TGI (NCI-H460 NSCLC): > 100 µM | GI50 (SNB-19 CNS): > 100 µM | TGI (SNB-19 CNS): > 100 µM | GI50 (CAKI-1 renal): > 100 µM | TGI (CAKI-1 renal): > 100 µM | GI50 (SNB-75 CNS): > 100 µM | TGI (SNB-75 CNS): > 100 µM
